Results published in PubChem BioAssay (NCI).
Values joined by “and” are separate entries in the source; they are usually repeats but may differ in a detail not shown here. Equal entries are not always repeated.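 Grown in 96-well plates, cells were treated for 48 hours with each compound at five concentrations. Insufficient inhibition: endpoint recorded as highest concentration tested. GI50 is the concentration that inhibits growth by half. TGI: concentration producing complete growth inhibition.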

Experiments:
Experiment in all cases: growth of human tumour cells (NCI), 48 h
CAKI-1 renal = tested on: CAKI-1 renal
OVCAR-8 ovarian = tested on: OVCAR-8 ovarian
HCT-15 colon = tested on: HCT-15 colon
KM12 colon = tested on: KM12 colon
IGROV1 ovarian = tested on: IGROV1 ovarian
MOLT-4 leukemia = tested on: MOLT-4 leukemia
MCF7 breast = tested on: MCF7 breast
SW-620 colon = tested on: SW-620 colon
SN12C renal = tested on: SN12C renal
786-0 renal = tested on: 786-0 renal

| Structure (SMILES) | GI50 (CAKI-1 renal) | TGI (CAKI-1 renal) | GI50 (OVCAR-8 ovarian) | TGI (OVCAR-8 ovarian) | GI50 (HCT-15 colon) | TGI (HCT-15 colon) | GI50 (KM12 colon) | TGI (KM12 colon) | GI50 (IGROV1 ovarian) | TGI (IGROV1 ovarian) | GI50 (MOLT-4 leukemia) | TGI (MOLT-4 leukemia) | GI50 (MCF7 breast) | TGI (MCF7 breast) | GI50 (SW-620 colon) | TGI (SW-620 colon) | GI50 (SN12C renal) | TGI (SN12C renal) | GI50 (786-0 renal) | TGI (786-0 renal) |
| --- | --- | --- | --- | --- | --- | --- | --- | --- | --- | --- | --- | --- | --- | --- | --- | --- | --- | --- | --- | --- |
| COc1ccc(-c2cnnn2-c2nonc2-n2cccc2)cc1 | 0.245 µM | > 67.1 µM | 0.425 µM | 18.9 µM | 0.311 µM | > 100 µM | 0.16 µM | 8.53 µM | 0.536 µM | > 92.8 µM | 0.498 µM | 12.6 µM | 0.277 µM | 60.3 µM | 0.149 µM | > 100 µM | 0.595 µM | > 100 µM | 0.488 µM | > 34 µM |
| COc1ccc(-c2ccc3c(N4CCOC[C@@H]4C)nc(N4CCOC[C@@H]4C)nc3n2)cc1CO | 0.00473 µM and 0.0302 µM | 5.15 µM | 0.00759 µM and 0.0351 µM | 3.39 µM | 0.00526 µM and 0.0301 µM | > 100 µM | 0.00626 µM and 0.0449 µM | > 100 µM | 0.00654 µM and < 0.01 µM | 0.0744 µM and 0.0607 µM | 0.00584 µM and 0.0488 µM | > 6.64 µM and 37.1 µM | 0.00432 µM and < 0.0133 µM | > 3.27 µM and 1.34 µM | 0.0078 µM and 0.0537 µM | > 100 µM | 0.0053 µM and 0.0208 µM | > 100 µM | 0.00494 µM and 0.0416 µM | > 45.1 µM |
| O=C1c2ccccc2-c2c1c1ccccc1c(=O)n2CCN1CCNCC1 | 0.465 µM | 2.9 µM | 0.968 µM | 3.59 µM | 0.935 µM | 11.3 µM | 1.24 µM | 3.47 µM | 3.61 µM | > 100 µM | 0.253 µM | 0.688 µM | 0.836 µM | 17.5 µM | 1.47 µM | 7.28 µM | 2.21 µM | 18.1 µM | 2.88 µM | 12.4 µM |
| COc1ccc(/C(C)=C(\c2ccc(OCCN3CCCCCC3)cc2)c2ccc(OC(=O)C3CCCCC3)cc2)cc1 | 0.705 µM | 2.61 µM | 2.04 µM | 5.9 µM | 0.378 µM | 1.41 µM | 0.854 µM | 3.27 µM | 1.21 µM | 3.88 µM | 0.497 µM | 2.54 µM | 0.015 µM | 2.88 µM | 0.948 µM | 3.15 µM | 1.11 µM | 3.28 µM | 1.11 µM | 3.06 µM |
| OC(c1cc(-c2ccc(C(F)(F)F)cc2)nc(C(F)(F)F)c1)C1CCCCN1 (stereo not drawn) | 1.48 µM | 2.81 µM and 17.7 µM | 1.87 µM and 2.2 µM | 3.62 µM and 4.59 µM | 1.7 µM | 3.12 µM and 4.7 µM |  | 3.13 µM and 3.35 µM | 2.02 µM | 3.1 µM and 4.89 µM | 1.32 µM | 3.16 µM and 4.34 µM | 1.61 µM | 3.08 µM and 3.42 µM |  | 3.33 µM and 3.36 µM | 1.79 µM and 3.13 µM | 3.19 µM and 7.37 µM | 1.57 µM | 3.16 µM and 3.48 µM |
| CO[C@H]1Nc2c(ccc(C)c2O)C(=O)N2C=C(/C=C/C(N)=O)C[C@@H]12 |  | 0.211 µM |  | 2.01 µM |  | 0.758 µM |  | 7.2 µM |  | 7.33 µM |  | 6.29 µM |  | 8.05 µM |  | 17.7 µM |  | 1.05 µM |  | 2.03 µM |
| O=C1CCCN1c1ccccc1I(=O)=O | > 100 µM | > 100 µM | > 100 µM | > 100 µM | > 100 µM | > 100 µM | > 100 µM | > 100 µM | > 100 µM | > 100 µM | > 100 µM | > 100 µM | > 100 µM | > 100 µM | > 100 µM | > 100 µM | > 100 µM | > 100 µM | > 100 µM | > 100 µM |
| COc1ccc(-c2nc(-c3cc(OC)cc(OC)c3)[nH]c2-c2ccc(OC)cc2)cc1 | 6.24 µM | > 100 µM | 9.77 µM | > 100 µM | 5.04 µM | > 100 µM | 6.2 µM | > 100 µM | > 100 µM | > 100 µM | 2.8 µM | 8.15 µM | 3.77 µM | > 100 µM | 54.1 µM | > 100 µM | > 100 µM | > 100 µM | > 100 µM | > 100 µM |
| CC(C)c1[nH]nc2c1N=C(c1ccccc1Cl)c1cc([N+](=O)[O-])ccc1N2 | 2.53 µM | > 13.7 µM | 9.1 µM | > 25 µM | 3.86 µM | > 25 µM | 1.79 µM | 6.31 µM | 9.46 µM | 24.4 µM | 6.76 µM | 20.6 µM | 4.53 µM | 24.3 µM | 2.2 µM | > 25 µM | 8.17 µM | > 25 µM | 5.74 µM | > 24 µM |
| CC(C)(C)[Si](C)(C)OC1[C@@H](CNC(=O)NC(=O)CCl)O[C@@H](n2cnc3c(N)ncnc32)[C@H]1O[Si](C)(C)C(C)(C)C (stereo partly drawn) | 1.33 µM | 3.89 µM | 0.812 µM | 2.85 µM | 0.832 µM | 1.67 µM | 0.897 µM | 1.98 µM | 0.154 µM | 0.441 µM | 0.53 µM | 1.73 µM | 0.724 µM | 1.51 µM | 0.891 µM | 1.77 µM | 0.821 µM | 1.88 µM | 0.662 µM | 1.55 µM |
| NNCCc1ccc(NC(=O)CCCc2ccc(C(=O)Nc3ccccc3N)cc2)cc1 | 7.99 µM | > 100 µM | 8.52 µM | > 100 µM | 45.6 µM | > 100 µM | 29.1 µM | > 100 µM | 31 µM | > 100 µM | 3.22 µM | 26.8 µM | 6.84 µM | > 100 µM | 5.77 µM | > 100 µM | 28 µM | > 100 µM | 15.7 µM | > 100 µM |
| Cc1cc(Nc2nc(-c3cn(-c4ccc(Cl)cc4)nn3)nc3ccccc23)n[nH]1 | 2.31 µM | 14.7 µM | 18.5 µM | > 50 µM | 2.17 µM | > 50 µM | 4.95 µM | > 50 µM | 9.16 µM | > 50 µM | 22 µM | > 50 µM | 27 µM | > 50 µM | 12.5 µM | > 50 µM | 10.7 µM | > 50 µM | 15.1 µM | > 50 µM |
